Laboratory results reported in ChEMBL document CHEMBL1137073, “Development of irreversible diphenyl phosphonate inhibitors for urokinase plasminogen activator” (J Med Chem, 2004).

Legend:
[1] = biological target: T1, Urokinase-type plasminogen activator (Homo sapiens, UniProt P00749); assay: (§1) Inhibitory activity against Urokinase-type plasminogen activator
[2] = biological target: T2, Tissue-type plasminogen activator (Homo sapiens, UniProt P00750); assay: Inhibitory activity against Tissue type plasminogen activator at a concentration of 2.5 uM
Target sequence in this assay (P00750 36-562 limits assumed): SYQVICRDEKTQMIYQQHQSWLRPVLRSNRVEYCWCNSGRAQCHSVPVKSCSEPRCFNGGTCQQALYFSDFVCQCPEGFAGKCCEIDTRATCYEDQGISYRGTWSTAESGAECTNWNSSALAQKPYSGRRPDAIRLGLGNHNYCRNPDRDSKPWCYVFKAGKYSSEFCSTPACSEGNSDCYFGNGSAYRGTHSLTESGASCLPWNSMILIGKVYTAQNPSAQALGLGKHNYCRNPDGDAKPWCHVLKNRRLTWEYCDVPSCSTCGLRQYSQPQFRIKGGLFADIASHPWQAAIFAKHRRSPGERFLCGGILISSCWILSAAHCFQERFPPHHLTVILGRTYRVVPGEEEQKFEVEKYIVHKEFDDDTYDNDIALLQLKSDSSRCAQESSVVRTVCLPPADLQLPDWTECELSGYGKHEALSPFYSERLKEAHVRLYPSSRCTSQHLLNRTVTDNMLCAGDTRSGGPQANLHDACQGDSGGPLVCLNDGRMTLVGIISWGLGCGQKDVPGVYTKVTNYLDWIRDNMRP

[3] = biological target: T1, Urokinase-type plasminogen activator; assay: as §1; remark: listed apart in the source
Prothrombin [4] = biological target: T3, Prothrombin (Homo sapiens, UniProt P00734); assay: Inhibitory activity against thrombin at a concentration of 2.5 uM
Prothrombin [5] = biological target: T3, Prothrombin; assay: Inhibitory activity against thrombin
Coagulation factor X [6] = biological target: T4, Coagulation factor X (Homo sapiens, UniProt P00742); conditions: at 250 µM
T4 sequence (P00742 41-179 limits assumed): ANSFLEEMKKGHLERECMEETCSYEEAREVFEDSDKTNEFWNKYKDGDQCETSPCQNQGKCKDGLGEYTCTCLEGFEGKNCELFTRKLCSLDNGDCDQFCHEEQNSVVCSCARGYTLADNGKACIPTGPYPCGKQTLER
T4 sequence (P00742 235-488 limits assumed): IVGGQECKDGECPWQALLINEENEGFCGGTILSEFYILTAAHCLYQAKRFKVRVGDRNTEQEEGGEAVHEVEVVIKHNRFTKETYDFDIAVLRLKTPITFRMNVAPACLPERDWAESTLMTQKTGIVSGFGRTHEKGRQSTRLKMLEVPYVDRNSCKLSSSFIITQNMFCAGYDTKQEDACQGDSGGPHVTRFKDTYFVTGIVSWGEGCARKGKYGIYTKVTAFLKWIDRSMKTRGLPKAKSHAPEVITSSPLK
Description: Inhibitory activity against Coagulation factor Xa at a concentration of 250 uM

Plasminogen [7] = biological target: T5, Plasminogen (Homo sapiens, UniProt P00747); conditions: at 250 µM
T5 sequence (P00747 97-580 limits assumed): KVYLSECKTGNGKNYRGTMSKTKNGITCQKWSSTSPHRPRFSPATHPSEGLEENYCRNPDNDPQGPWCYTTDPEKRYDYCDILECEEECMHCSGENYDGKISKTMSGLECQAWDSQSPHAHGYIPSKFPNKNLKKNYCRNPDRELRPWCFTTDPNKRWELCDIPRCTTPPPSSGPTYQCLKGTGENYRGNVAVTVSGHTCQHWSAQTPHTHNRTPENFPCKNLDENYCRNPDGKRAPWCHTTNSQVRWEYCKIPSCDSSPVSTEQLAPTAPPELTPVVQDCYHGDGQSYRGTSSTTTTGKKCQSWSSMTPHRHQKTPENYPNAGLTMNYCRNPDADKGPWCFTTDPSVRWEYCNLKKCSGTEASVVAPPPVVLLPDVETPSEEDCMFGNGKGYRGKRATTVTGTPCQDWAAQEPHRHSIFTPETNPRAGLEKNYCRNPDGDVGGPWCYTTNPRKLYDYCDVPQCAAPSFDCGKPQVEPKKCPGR
T5 sequence (P00747 581-810 limits assumed): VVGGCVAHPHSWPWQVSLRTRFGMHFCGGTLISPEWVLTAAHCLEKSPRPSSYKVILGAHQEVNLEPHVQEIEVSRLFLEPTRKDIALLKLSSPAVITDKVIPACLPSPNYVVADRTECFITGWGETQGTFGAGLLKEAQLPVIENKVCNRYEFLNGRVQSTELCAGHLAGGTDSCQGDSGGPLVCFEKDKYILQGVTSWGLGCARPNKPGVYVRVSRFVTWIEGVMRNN
Description: Inhibitory activity against plasmin at a concentration of 250 uM

[8] = biological target: T2, Tissue-type plasminogen activator; assay: Inhibitory activity against Tissue type plasminogen activator
Target sequence in this assay (P00750 whole entry): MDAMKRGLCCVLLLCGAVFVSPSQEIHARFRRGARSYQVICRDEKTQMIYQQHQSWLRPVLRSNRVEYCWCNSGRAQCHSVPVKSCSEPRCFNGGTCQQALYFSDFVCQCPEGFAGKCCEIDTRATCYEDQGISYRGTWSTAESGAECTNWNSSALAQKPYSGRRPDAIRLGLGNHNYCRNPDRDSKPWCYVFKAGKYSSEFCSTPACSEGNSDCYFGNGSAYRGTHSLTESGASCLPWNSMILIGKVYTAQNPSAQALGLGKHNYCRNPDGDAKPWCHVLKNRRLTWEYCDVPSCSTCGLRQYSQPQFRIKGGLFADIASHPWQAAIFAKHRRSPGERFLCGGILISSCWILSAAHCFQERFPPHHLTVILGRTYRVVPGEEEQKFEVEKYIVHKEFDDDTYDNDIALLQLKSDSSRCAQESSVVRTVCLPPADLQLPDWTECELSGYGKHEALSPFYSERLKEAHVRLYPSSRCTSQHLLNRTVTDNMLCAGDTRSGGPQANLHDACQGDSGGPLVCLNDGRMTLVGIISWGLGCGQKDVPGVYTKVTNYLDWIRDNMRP

[9] = biological target: T2, Tissue-type plasminogen activator; conditions: at 250 µM
Target sequence in this assay (P00750 36-562 limits assumed): as the sequence (P00750 36-562 limits assumed) above
Description: (§2) Inhibitory activity against Tissue type plasminogen activator at a concentration of 250 uM

Prothrombin [10] = biological target: T3, Prothrombin; conditions: at 250 µM
Description: Inhibitory activity against thrombin at a concentration of 250 uM

[11] = biological target: T2, Tissue-type plasminogen activator; conditions: at 250 µM; remark: listed apart in the source
Target sequence in this assay (P00750 36-562 limits assumed): as above
Description: as §2

Coagulation factor X [12] = biological target: T4, Coagulation factor X; assay: Inhibitory activity against Coagulation factor Xa
Plasminogen [13] = biological target: T5, Plasminogen; assay: Inhibitory activity against plasmin
[14] = biological target: T2, Tissue-type plasminogen activator; assay: Inhibitory activity against Tissue type plasminogen activator at a concentration of
Target sequence in this assay (P00750 36-562 limits assumed): as above

| Structure (SMILES) | K app [1] [M⁻¹ s⁻¹] | IC50 [3] [µM] | inhibition (Coagulation factor X [6]) [%] | inhibition (Plasminogen [7]) [%] | other results |
| --- | --- | --- | --- | --- | --- |
| C[C@H](NC(=O)[C@@H](CO)NC(=O)OCc1ccccc1)C(=O)NC(CCCCN=C(N)N)P(=O)(Oc1ccccc1)Oc1ccccc1 (some centres undefined) | 3.8 | 0.25 |  |  | inhibition [2]: 19%; inhibition (Prothrombin [4]): 12% |
| N=C(N)NC(=O)c1nc(Cl)c(N)nc1N [AMILORIDE] |  |  | 17 | 23 | IC50 (Prothrombin [5]): > 250 µM; IC50 [8]: > 250 µM |
| C[C@H](NC(=O)[C@@H](CO)NC(=O)OCc1ccccc1)C(=O)NC(CCN=C(N)N)P(=O)(Oc1ccccc1)Oc1ccccc1 (some centres undefined) | 1.4 |  | 6 | 15 | inhibition [9]: 46%; inhibition (Prothrombin [10]): 96%; inhibition (Prothrombin [4]): 10% |
| C[C@H](NC(=O)[C@@H](CO)NC(=O)OCc1ccccc1)C(=O)NC(c1ccc(CN=C(N)N)cc1)P(=O)(Oc1ccccc1)Oc1ccccc1 (some centres undefined) | 3.3 | 8.4 | 44 | 45 | inhibition [11]: 43%; inhibition (Prothrombin [10]): 20% |
| C[C@H](NC(=O)[C@@H](CO)NC(=O)OCc1ccccc1)C(=O)NC(Cc1ccc(NC(=N)N)cc1)P(=O)(Oc1ccccc1)Oc1ccccc1 (some centres undefined) | 6.7 |  |  |  |  |
| C[C@H](NC(=O)[C@@H](CO)NC(=O)OCc1ccccc1)C(=O)NC(c1ccc(N=C(N)N)cc1)P(=O)(Oc1ccccc1)Oc1ccccc1 (some centres undefined) |  | 1.6 |  |  |  |
| C[C@H](NC(=O)[C@@H](CO)NC(=O)OCc1ccccc1)C(=O)NC(CCCNC(=N)N)P(=O)(Oc1ccccc1)Oc1ccccc1 (some centres undefined) |  | 0.061 |  |  | IC50 (Prothrombin [5]): 0.5 µM; IC50 (Coagulation factor X [12]): 65 µM; IC50 (Plasminogen [13]): 10.8 µM |
| C[C@H](NC(=O)[C@@H](CO)NC(=O)OCc1ccccc1)C(=O)NC(c1ccc(NC(=N)N)cc1)P(=O)(Oc1ccccc1)Oc1ccccc1 (some centres undefined) | 2 |  | 56 | 46 | inhibition [14]: 53%; inhibition (Prothrombin [4]): 44% |
| C[C@H](NC(=O)[C@@H](CO)NC(=O)OCc1ccccc1)C(=O)NC(Cc1ccc(N=C(N)N)cc1)P(=O)(Oc1ccccc1)Oc1ccccc1 (some centres undefined) |  | 0.057 |  |  | IC50 (Prothrombin [5]): 30 µM; IC50 [8]: 14 µM; IC50 (Coagulation factor X [12]): 79 µM; IC50 (Plasminogen [13]): 22 µM |
| C[C@H](NC(=O)[C@@H](CO)NC(=O)OCc1ccccc1)C(=O)NC(CCNC(=N)N)P(=O)(Oc1ccccc1)Oc1ccccc1 (some centres undefined) |  | 4.1 |  |  |  |
| C[C@H](NC(=O)[C@@H](CO)NC(=O)OCc1ccccc1)C(=O)NC([C@H]1CC[C@H](CN=C(N)N)CC1)P(=O)(Oc1ccccc1)Oc1ccccc1 (some centres undefined) | 1.4 | 1.1 | 77 |  | inhibition [11]: 41%; inhibition (Prothrombin [10]): 40%; IC50 (Plasminogen [13]): 32.2 µM |
| C[C@H](NC(=O)[C@@H](CO)NC(=O)OCc1ccccc1)C(=O)NC(CCCN=C(N)N)P(=O)(Oc1ccccc1)Oc1ccccc1 (some centres undefined) |  |  |  |  | inhibition [2]: 50% |
